Target: T1, Src enzyme (Homo sapiens, UniProt P12931)
T1 construct: purchased Millipore 14-326
Test: Src enzyme activity, IMAP fluorescence polarization assay
Format: biochemical
Conditions: 60 min pre-incubation, 4 μM ATP (Km)
Procedure: Src enzyme activity is measured using the IMAP (immobilized metal ion affinity-based fluorescence polarization) assay as outlined below.
Src enzyme (Millipore catalog#14-326), is diluted to 0.8 U/mL in KR buffer (10 mM Tris-HCl, 10 mM MgCl2, 0.01% Tween-20, 0.05% NaN3, 1 mM DTT, 2 mM MnCl2, pH 7.2).
Serial dilution log 10 from 2 mM to 63.2 nM of test compounds are made in 100% DMSO. The dilutions in DMSO are then diluted 50-fold in KR-buffer of which 5 μl is used in the assay, leading to a final compound concentration range in the assay from 10 μM to 0.316 nM. 5 μL/well of test compound in KR buffer (final DMSO concentration in the assay is 1%) is mixed with 5 μl/well of 0.8 U/mL Src enzyme (final concentration in the assay is 0.2 U/mL). Test compounds and Src enzyme are pre-incubated 60 minutes at room temperature, before adding 5 μL/well of 400 nM Fluorescin labeled substrate peptide (p34cdc2 substrate peptide, e.g. #R7157/#R7172, Molecular Devices) in KR-buffer. Final peptide substrate concentration in assay is 100 nM. The kinase assay is started by adding 5 μL/well of 16 μM ATP in KR-buffer (final ATP concentration is 4 μM ATP, Km ATP in Src IMAP assay). Following incubation for 2 h at room temperature the enzyme reaction is stopped by adding 40 μL/well IMAP Progressive Binding Solution (according to suppliers (Molecular Devices) protocol using 75% 1× buffer A and 25% 1× buffer B with 1:600 Progressive Binding Solution). After 60 min incubation at room temperature in the dark the FP signal is read. Fluorescence at 535 nm is measured using parallel and perpendicular filters to determine differences in rotation due to binding of the phosphorylated substrate peptide to the beads. Values are calculated as percentage of the difference in readout (ΔmPi) of the controls with and without ATP. EC50 values are determined by curve fitting of the experimental results using Activity Base.

T1 sequence (P12931 whole entry): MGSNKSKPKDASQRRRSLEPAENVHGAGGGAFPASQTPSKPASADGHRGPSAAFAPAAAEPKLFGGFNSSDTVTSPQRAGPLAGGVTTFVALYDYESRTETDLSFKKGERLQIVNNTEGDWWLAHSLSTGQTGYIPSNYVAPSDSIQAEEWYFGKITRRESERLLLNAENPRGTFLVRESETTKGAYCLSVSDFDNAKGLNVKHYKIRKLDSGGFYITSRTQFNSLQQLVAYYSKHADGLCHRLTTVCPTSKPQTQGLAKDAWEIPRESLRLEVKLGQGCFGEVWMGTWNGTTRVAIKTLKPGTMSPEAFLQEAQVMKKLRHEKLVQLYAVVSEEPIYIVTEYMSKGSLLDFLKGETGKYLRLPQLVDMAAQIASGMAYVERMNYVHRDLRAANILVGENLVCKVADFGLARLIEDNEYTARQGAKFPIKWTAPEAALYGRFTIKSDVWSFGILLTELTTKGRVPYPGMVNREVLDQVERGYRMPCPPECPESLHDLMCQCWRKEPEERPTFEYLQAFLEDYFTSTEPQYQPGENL

EC50 [nM] | SMILES
≥ 1000 | C=CC(=O)N1CCCC[C@H]1c1nc(-c2ccc(C(=O)Nc3cc(CCC)ccn3)cc2)c2c(C)nccn12 [Example 2, (S)-4-(3-(1-Acryloylpiperidin-2-yl)-8-methylimidazo[1,5-a]pyrazin-1-yl)-N-(4-propylpyridin-2-yl)benzamide]
≥ 1000 | CCCc1ccnc(NC(=O)c2ccc(-c3nc([C@@H]4CCCCN4C(=O)/C=C/CN(C)C)n4ccnc(C)c34)cc2)c1 [Example 3, (S,E)-4-(3-(1-(4-(Dimethylamino)but-2-enoyl)piperidin-2-yl)-8-methylimidazo[1,5-a]pyrazin-1-yl)-N-(4-propylpyridin-2-yl)benzamide]
≥ 1000 | C=CS(=O)(=O)N1CCCC[C@H]1c1nc(-c2ccc(C(=O)Nc3cc(CCC)ccn3)cc2)c2c(C)nccn12 [Example 4, (S)-4-(8-Methyl-3-(1-(vinylsulfonyl)piperidin-2-yl)imidazo[1,5-a]pyrazin-1-yl)-N-(4-propylpyridin-2-yl)benzamide]
≥ 1000 | COC/C=C/C(=O)N[C@@H](C)c1nc(-c2ccc(C(=O)Nc3cc(C(F)(F)F)ccn3)cc2)c2c(C)nccn12 [Example 6, (S,E)-4-(3-(1-(4-Methoxybut-2-enamido)ethyl)-8-methylimidazo[1,5-a]pyrazin-1-yl)-N-(4-(trifluoromethyl)pyridin-2-yl)benzamide]
≥ 1000 | CC#CC(=O)N[C@@H](C)c1nc(-c2ccc(C(=O)Nc3cc(C(F)(F)F)ccn3)cc2)c2c(C)nccn12 [Example 7, (S)-4-(3-(1-But-2-ynamidoethyl)-8-methylimidazo[1,5-a]pyrazin-1-yl)-N-(4-(trifluoromethyl)pyridin-2-yl)benzamide]
≥ 1000 | C=CC(=O)N[C@@H](C)c1nc(-c2ccc(C(=O)Nc3cc(C(F)(F)F)ccn3)cc2)c2c(C)nccn12 [Example 8, (S)-4-(3-(1-Acrylamidoethyl)-8-methylimidazo[1,5-a]pyrazin-1-yl)-N-(4-(trifluoromethyl)pyridin-2-yl)benzamide]
≥ 1000 | C=CC(=O)N1CCC[C@H]1c1nc(-c2ccc(C(=O)Nc3cc(CCC)ccn3)cc2)c2c(C)nccn12 [Example 9, (S)-4-(3-(1-Acryloylpyrrolidin-2-yl)-8-methylimidazo[1,5-a]pyrazin-1-yl)-N-(4-propylpyridin-2-yl)benzamide]
≥ 1000 | C=CC(=O)N1CCC[C@H]1c1nc(-c2ccc(C(=O)Nc3cc(C(F)(F)F)ccn3)cc2)c2c(C)nccn12 [Example 10, (S)-4-(3-(1-Acryloylpyrrolidin-2-yl)-8-methylimidazo[1,5-a]pyrazin-1-yl)-N-(4-(trifluoromethyl)pyridin-2-yl)benzamide]
≥ 1000 | C=CC(=O)N1CCC[C@H]1c1nc(-c2ccc(C(=O)Nc3cc(C#N)ccn3)cc2)c2c(C)nccn12 [Example 13, (S)-4-(3-(1-Acryloylpyrrolidin-2-yl)-8-methylimidazo[1,5-a]pyrazin-1-yl)-N-(4-cyanopyridin-2-yl)benzamide]
≥ 1000 | CC#CC(=O)N1CCC[C@H]1c1nc(-c2ccc(C(=O)Nc3cc(C)ccn3)cc2)c2c(C)nccn12 [Example 15, (S)-4-(3-(1-but-2-ynoylpyrrolidin-2-yl)-8-methylimidazo[1,5-a]pyrazin-1-yl)-N-(4-methylpyridin-2-yl)benzamide]
≥ 1000 | CCCc1ccnc(NC(=O)c2ccc(-c3nc([C@H](C)N(C)C(=O)/C=C/CN(C)C)n4ccnc(C)c34)cc2)c1 [Example 18, (S,E)-4-(3-(1-(4-(dimethylamino)-N-methylbut-2-enamido)ethyl)-8-methylimidazo[1,5-a]pyrazin-1-yl)-N-(4-propylpyridin-2-yl)benzamide]
≥ 1000 | C=CC(=O)N1CCC[C@H]1c1nc(-c2ccc(C(=O)Nc3ccccn3)cc2)c2c(C)nccn12 [Example 19, (S)-4-(3-(1-acryloylpyrrolidin-2-yl)-8-methylimidazo[1,5-a]pyrazin-1-yl)-N-(pyridin-2-yl)benzamide]
≥ 1000 | Cc1nccn2c([C@@H]3CCCCN3C(=O)/C=C/CN3CCCC3)nc(-c3ccc(C(=O)Nc4cc(C(F)(F)F)ccn4)cc3)c12 [Example 21, (S,E)-4-(8-methyl-3-(1-(4-(pyrrolidin-1-yl)but-2-enoyl)piperidin-2-yl)imidazo[1,5-a]pyrazin-1-yl)-N-(4-(trifluoromethyl)pyridin-2-yl)benzamide]
≥ 1000 | CC#CC(=O)N1CCCC[C@H]1c1nc(-c2ccc(C(=O)Nc3cc(CCC)ccn3)cc2)c2c(C)nccn12 [Example 22, (S)-4-(3-(1-but-2-ynoylpiperidin-2-yl)-8-methylimidazo[1,5-a]pyrazin-1-yl)-N-(4-propylpyridin-2-yl)benzamide]
≥ 1000 | C=CC(=O)N[C@@H](C)c1nc(-c2ccc(C(=O)Nc3cc(CCC)ccn3)cc2)c2c(C)nccn12 [Example 23, (S)-4-(3-(1-acrylamidoethyl)-8-methylimidazo[1,5-a]pyrazin-1-yl)-N-(4-propylpyridin-2-yl)benzamide]
≥ 1000 | CC#CC(=O)N(C)[C@@H](C)c1nc(-c2ccc(C(=O)Nc3cc(CCC)ccn3)cc2)c2c(C)nccn12 [Example 24, (S)-4-(8-methyl-3-(1-(N-methylbut-2-ynamido)ethyl)imidazo[1,5-a]pyrazin-1-yl)-N-(4-propylpyridin-2-yl)benzamide]
≥ 1000 | Cc1nccn2c([C@@H]3CCCN3C(=O)/C=C/CN3CCCC3)nc(-c3ccc(C(=O)Nc4ccccn4)cc3)c12 [Example 25, (S,E)-4-(8-methyl-3-(1-(4-(pyrrolidin-1-yl)but-2-enoyl)pyrrolidin-2-yl)imidazo[1,5-a]pyrazin-1-yl)-N-(pyridin-2-yl)benzamide]
≥ 1000 | C=CC(=O)N1CCCC[C@H]1c1nc(-c2ccc(C(=O)Nc3cc(C(F)(F)F)ccn3)cc2)c2c(C)nccn12 [Example 27, (S)-4-(3-(1-acryloylpiperidin-2-yl)-8-methylimidazo[1,5-a]pyrazin-1-yl)-N-(4-(trifluoromethyl)pyridin-2-yl)benzamide]
≥ 1000 | CCCc1ccnc(NC(=O)c2ccc(-c3nc([C@H](C)NC(=O)/C=C/CN(C)C)n4ccnc(C)c34)cc2)c1 [Example 28, (S,E)-4-(3-(1-(4-(dimethylamino)but-2-enamido)ethyl)-8-methylimidazo[1,5-a]pyrazin-1-yl)-N-(4-propylpyridin-2-yl)benzamide]
≥ 1000 | CC#CC(=O)N1CCCC[C@H]1c1nc(-c2ccc(C(=O)Nc3cc(C(F)(F)F)ccn3)cc2)c2c(C)nccn12 [Example 29, (S)-4-(3-(1-but-2-ynoylpiperidin-2-yl)-8-methylimidazo[1,5-a]pyrazin-1-yl)-N-(4-(trifluoromethyl)pyridin-2-yl)benzamide]
≥ 1000 | CCCc1ccnc(NC(=O)c2ccc(-c3nc([C@@H]4CCCCN4C(=O)/C=C/CN4CCCC4)n4ccnc(C)c34)cc2)c1 [Example 35, (S,E)-4-(8-methyl-3-(1-(4-(pyrrolidin-1-yl)but-2-enoyl)piperidin-2-yl)imidazo[1,5-a]pyrazin-1-yl)-N-(4-propylpyridin-2-yl)benzamide]
≥ 1000 | CCCc1ccnc(NC(=O)c2ccc(-c3nc([C@H](C)NC(=O)/C=C/COC)n4ccnc(C)c34)cc2)c1 [Example 36, (S,E)-4-(3-(1-(4-methoxybut-2-enamido)ethyl)-8-methylimidazo[1,5-a]pyrazin-1-yl)-N-(4-propylpyridin-2-yl)benzamide]
≥ 1000 | Cc1nccn2c([C@@H]3CCCCN3C(=O)/C=C/CN(C)C)nc(-c3ccc(C(=O)Nc4cc(C(F)(F)F)ccn4)cc3)c12 [Example 37, (S,E)-4-(3-(1-(4-(dimethylamino)but-2-enoyl)piperidin-2-yl)-8-methylimidazo[1,5-a]pyrazin-1-yl)-N-(4-(trifluoromethyl)pyridin-2-yl)benzamide]
≥ 1000 | CC#CC(=O)N[C@@H](C)c1nc(-c2ccc(C(=O)Nc3cc(CCC)ccn3)cc2)c2c(C)nccn12 [Example 38, (S)-4-(3-(1-but-2-ynamidoethyl)-8-methylimidazo[1,5-a]pyrazin-1-yl)-N-(4-propylpyridin-2-yl)benzamide]
